What was measured:
Helicobacter pylori = experiment: Minimal Inhibitory Concentrations against Helicobacter pylori on agar plates; assay type: cell-based
Procedure: Activity of bismuth compounds against Helicobarter pylori
Various bismuth compounds were tested in different concentrations against Helicobacter pylori on agar plates. Minimal Inhibitory Concentrations (MIC--values) are given in mg substance per litre.

[1] = stability against hydrolysis; assay type: physicochemical; details: dissolved in aqueous (25%) tetrahydrofuran, under reflux
From the text: When the R1-5 -groups form Bi--C bonds, aryl grou7ps are generally preferred. At least one of the R1-5 -groups should be an aryl group or substituted aryl group. The term "aryl group" here means any aromatic hydrocarbon ring system or aromatic heterocyclic system. Typical ring systems include for example benzene, naphthalene, indene, fluorene, phenalene, phenanthrene, anthracene, fluoranthene, acephenanthrylene, aceanthrylene, triphenylene, pyrene, chrysene, naphthacene, pleiadene, picene, perylene, pentaphene, pentacene, tetraphenylene, hexaphene, hexacene, rubicene, coronene, trinaphthylene, heptaphene, rubicene, coronene, heptacene, pyranthrene, ovalene, furan, thiophene, thianthrene, pyran, isobenzofuran, chromene, xanthene, phenoxathin, pyrrole, imidazole, pyrazole, isothiazole, isoxazole, pyridine, pyrazine, pyrimidine, pyradizine, indolizine, isoindole, indole, indazole, purine, quinolizine, isocaunoline, quinoline, phtalazine, naphyhyridine, quinoxaline, quinazoline, cinnoline, pteridine, carbazole, β-carboline, phenanthridine, acridine, permidine, phenanthroline, phenazine, phenarsazine, phenothiazine, furazan, phenoxazine, isochroman, chroman, indoline and iso-indoline.

Compound	Minimal Inhibitory Concentration (MIC - value) (Helicobacter pylori) [mg substance per litre]	stability against hydrolysis [1]
O=[N+]([O-])[O-].O=[N+]([O-])[O-].O=[N+]([O-])[O-].O=[N+]([O-])[O-].[Bi+3].[Bi+3].[Bi+3].[Bi+3].[Bi+3].[O-2].[OH-].[OH-].[OH-].[OH-].[OH-].[OH-].[OH-].[OH-].[OH-] [Bismuth subnitrate, bismuth hydroxide nitrate oxide]	32	–
c1cc[c]([Bi]([c]2ccccc2)[c]2ccccc2)cc1 [triphenylbismuth]	–	stable under reflux for many days
Triphenylbismuthine difluoride [Example 16]	8	–
Tris(2,4,6trimethylphenyl)bismuthine dichloride [Example 15]	≤ 0.25	–

From patent US6303101A, “Bismuth compounds” (Nycomed Imaging AS, priority 1995, dated 2001)
